Assay results published in patent US20210179600A1, “OXAZOLE AND THIAZOLE DERIVATIVES AS INHIBITORS OF ASK1” (Hepagene Therapeutics (HK) Limited, priority 2017, published 2021).

Target: T1, Recombinant human ASK1 kinase (Homo sapiens, UniProt Q99683)
T1 construct: purchased Invitrogen Inc
T1 sequence (Q99683 1-1374): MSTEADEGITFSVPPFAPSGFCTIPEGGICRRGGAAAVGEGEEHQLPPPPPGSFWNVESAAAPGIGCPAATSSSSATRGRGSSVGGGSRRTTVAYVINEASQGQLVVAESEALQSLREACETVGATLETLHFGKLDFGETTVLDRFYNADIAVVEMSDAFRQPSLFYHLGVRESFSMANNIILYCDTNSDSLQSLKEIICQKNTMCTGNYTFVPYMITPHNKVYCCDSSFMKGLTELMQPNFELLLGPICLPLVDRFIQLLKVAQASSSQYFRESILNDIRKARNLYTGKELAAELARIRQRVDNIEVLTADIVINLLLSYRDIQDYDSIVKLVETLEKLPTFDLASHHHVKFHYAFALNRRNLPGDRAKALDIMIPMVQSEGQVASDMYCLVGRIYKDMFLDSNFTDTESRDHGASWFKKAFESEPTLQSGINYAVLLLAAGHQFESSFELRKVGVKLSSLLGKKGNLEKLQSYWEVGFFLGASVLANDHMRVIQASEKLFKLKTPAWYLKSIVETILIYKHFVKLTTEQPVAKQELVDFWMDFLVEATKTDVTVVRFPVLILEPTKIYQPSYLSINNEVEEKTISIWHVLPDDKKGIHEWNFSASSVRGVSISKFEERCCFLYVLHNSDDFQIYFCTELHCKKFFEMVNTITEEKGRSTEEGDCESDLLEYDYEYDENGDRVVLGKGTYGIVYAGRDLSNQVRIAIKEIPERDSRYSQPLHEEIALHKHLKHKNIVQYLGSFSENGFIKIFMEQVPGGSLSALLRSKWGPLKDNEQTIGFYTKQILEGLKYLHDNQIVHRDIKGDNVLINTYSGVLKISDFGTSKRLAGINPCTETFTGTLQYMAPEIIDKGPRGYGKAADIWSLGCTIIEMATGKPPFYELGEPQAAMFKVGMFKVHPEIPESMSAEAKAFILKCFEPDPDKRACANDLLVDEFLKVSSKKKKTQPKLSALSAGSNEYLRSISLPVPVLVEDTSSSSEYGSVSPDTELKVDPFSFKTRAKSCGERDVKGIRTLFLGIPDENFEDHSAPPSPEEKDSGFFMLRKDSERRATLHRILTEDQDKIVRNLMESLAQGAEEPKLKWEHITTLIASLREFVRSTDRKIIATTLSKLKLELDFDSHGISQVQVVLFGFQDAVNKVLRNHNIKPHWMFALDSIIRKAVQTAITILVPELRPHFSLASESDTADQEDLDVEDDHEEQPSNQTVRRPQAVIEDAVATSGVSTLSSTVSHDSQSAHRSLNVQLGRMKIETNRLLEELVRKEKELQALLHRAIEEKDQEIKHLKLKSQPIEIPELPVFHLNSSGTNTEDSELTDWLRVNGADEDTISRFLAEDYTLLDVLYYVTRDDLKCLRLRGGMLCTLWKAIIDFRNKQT
Assay: ASK1 kinase HTRF assay (KinEASE-STK)
Assay type: biochemical
Settings: HTRF detection; 3 nM ASK1 kinase, 1 uM STK-substrate-biotin
Procedure: Reagents: Recombinant human ASK1 kinase was from Invitrogen Inc. HTRF KinEASE™-STK S3 kit was obtained from Cisbio (Bedford, Mass.). All other reagents were of the highest grade commercially available.
Assay: The assay measures the phosphorylation level of a biotinylatd peptide substrate by the ASK1 kinase using HTRF detection. ASK1 kinase assay is based on HTRF KinEASE™-STK manual from Cisbio. Test compound, 1 uM STK-substrate-biotin, 3 nM of ASK1 kinase are incubated with 1*Kinase buffer with 5 mM MgCl2 and 1 mM DTT. 250 nM Sa-XL 665(4*) and STK-antibody-Cryptate work solution are added to stop the reaction and phosphorylated peptide substrate is detected using Envision 2104 Multilabeled reader from PerkinElmer. The fluorescence is measured at 615 nm (Cryptate) and 665 nm (XL665) and a ratio of 665 nm/615 nm is calculated for each well. The resulting TR-FRET level (a ratio of 665 nm/615 nm) is proportional to the phosphorylation level of substrate.

Structure (SMILES) | EC50
CC(C1CC1)n1cnnc1-c1cccc(-c2ncc(-c3ccccc3)o2)n1 (centres unmarked) [Compound I-015, 2-(6-(4-(1-Cyclopropylethyl)-4H-1,2,4-triazol-3-yl)pyridin-2-yl)-5-phenyloxazole] | ≤ 50 nM
CC(C)n1cnnc1-c1cccc(-c2ncc(-c3cccc(N4C5CCCC4CC5)c3)o2)n1 [Compound I-121] | 50 to 500 nM
C[C@H](CO)n1cnnc1-c1cccc(-c2ncc(-c3cccc(C4=CCCC4)c3)o2)n1 [Compound I-136] | ≤ 50 nM
CC(C)n1cnnc1-c1cccc(-c2ncc(-c3cccc(-n4cnc(C5CC5)c4)c3)o2)n1 [Compound I-144] | ≤ 50 nM
CCc1ccccc1-c1cnc(-c2cccc(-c3nncn3C(C)C)n2)o1 [Compound I-038] | ≤ 50 nM
CC(C)n1cnnc1-c1cccc(-c2ncc(-c3ccc(C#N)cc3)o2)n1 [Compound I-091] | 50 to 500 nM
Cc1ccccc1-c1cnc(-c2cccc(-c3nncn3C(C)C(F)(F)F)n2)o1 (centres unmarked) [Compound I-027] | ≤ 50 nM
Cc1ccccc1-c1cnc(-c2cccc(-c3nncn3[C@H](C)CN)n2)o1 [Compound I-013, (R)-2-(3-(6-(5-o-Tolyloxazol-2-yl)pyridin-2-yl)-4H-1,2,4-triazol-4-yl)propan-1-amine] | 500 to 5000 nM
C[C@H](CO)n1cnnc1-c1cccc(-c2ncc(-c3cccc(N4CCCC4)c3)o2)n1 [Compound I-126] | ≤ 50 nM
CC(C)n1cnnc1-c1cccc(-c2ncc(C3CCCCC3)o2)n1 [Compound I-016, 5-Cyclohexyl-2-(6-(4-isopropyl-4H-1,2,4-triazol-3-yl)pyridin-2-yl) oxazole] | 50 to 500 nM
CC(C)n1cnnc1-c1cccc(-c2ncc(-c3ccccc3C#N)o2)n1 [Compound I-089] | 50 to 500 nM
CC(C)Oc1cccc(-c2cnc(-c3cccc(-c4nncn4C(C)C)n3)o2)c1 [Compound I-076] | ≤ 50 nM
CC(C)n1cnnc1-c1cccc(-c2ncc(-c3nc4ccccc4o3)o2)n1 [Compound I-142] | 50 to 500 nM
CC(C)n1cnnc1-c1cccc(-c2ncc(-c3ccc(C4CC4)cc3)o2)n1 [Compound I-039] | 50 to 500 nM
CC(C)n1cnnc1-c1cccc(-c2ncc(-c3cccc(C(=O)Nc4ccccc4)c3)o2)n1 [Compound I-006, N-Phenyl-3-(2-[6-[4-(propan-2-yl)-4H-1,2,4-triazol-3-yl]pyridin-2-yl]-1,3-oxazol-5-yl)benzamide] | 50 to 500 nM
COc1ccc(-c2cnc(-c3cccc(-c4nncn4C(C)C)n3)o2)cc1 [Compound I-071] | 50 to 500 nM
CC(C)n1cnnc1-c1cccc(-c2ncc(-c3ccc(N4CCOCC4)cc3F)o2)n1 [Compound I-112] | 500 to 5000 nM
CC(C)n1cnnc1-c1cccc(-c2ncc(-c3ccc(N)cc3)o2)n1 [Compound I-065] | ≤ 50 nM
CC(C)n1cnnc1-c1cccc(-c2ncc(-c3cccc(C4=CCN(C(=O)OC(C)(C)C)C4)c3)o2)n1 [Compound I-124] | 50 to 500 nM
CC(C)N1CCN(c2cccc(-c3cnc(-c4cccc(-c5nncn5C(C)C)n4)o3)c2)CC1 [Compound I-117] | ≤ 50 nM
CC(C)c1cccc(-c2cnc(-c3cccc(-c4nncn4C(C)C)n3)o2)c1 [Compound I-034] | 50 to 500 nM
CNc1cccc(-c2cnc(-c3cccc(-c4nncn4C(C)C)n3)o2)c1 [Compound I-061] | ≤ 50 nM
CC(C)n1cnnc1-c1cccc(-c2ncc(-c3cccc(N4CCN(C5CC5)CC4)c3)o2)n1 [Compound I-118] | ≤ 50 nM
C[C@H](CO)n1cnnc1-c1cccc(-c2ncc(-c3cccc(N4CCOCC4)c3)o2)n1 [Compound I-111] | ≤ 50 nM
CC(C)n1cnnc1-c1cccc(-c2ncc(-c3cccc(N4CCN(CCO)CC4)c3)o2)n1 [Compound I-012, 2-(4-(3-(2-(6-(4-Isopropyl-4H-1,2,4-triazol-3-yl)pyridin-2-yl)oxazol-5-yl)phenyl)piperazin-1-yl)ethanol] | ≤ 50 nM

Structure (SMILES) | EC50
CC(C)n1cnnc1-c1cccc(-c2ncc(-c3cccc(O)c3)o2)n1 [Compound I-073] | ≤ 50 nM
COCCOc1cccc(-c2cnc(-c3cccc(-c4nncn4C(C)C)n3)o2)c1 [Compound I-078] | ≤ 50 nM
CC(C)n1cnnc1-c1cccc(-c2ncc(-c3ccc(F)cc3F)o2)n1 [Compound I-049] | 50 to 500 nM
CC(C)n1cnnc1-c1cccc(-c2ncc(-c3cccc(OC[C@@H]4CNCCO4)c3)o2)n1 [Compound I-079] | ≤ 50 nM
CC(C)n1cnnc1-c1cccc(-c2ncc(-c3cccc(C#N)c3)o2)n1 [Compound I-090] | 50 to 500 nM
CC(C)n1cnnc1-c1cccc(-c2ncc(-c3cccc(N4CCCCC4)c3)o2)n1 [Compound I-120] | 50 to 500 nM
CNc1cccc(-c2cnc(-c3cccc(-c4nncn4[C@H](C)CO)n3)o2)c1 [Compound I-062] | ≤ 50 nM
CC(=O)N1CCN(c2cccc(-c3cnc(-c4cccc(-c5nncn5C(C)C)n4)o3)c2)CC1 [Compound I-011, 1-(4-(3-(2-(6-(4-Isopropyl-4H-1,2,4-triazol-3-yl)pyridin-2-yl)oxazol-5-yl)phenyl)piperazin-1-yl)ethenone] | ≤ 50 nM
CCc1cccc(-c2cnc(-c3cccc(-c4nncn4C(C)C)n3)o2)c1 [Compound I-037] | 50 to 500 nM
CC(C)n1cnnc1-c1cc(-c2ncc(-c3ccccc3)o2)cs1 [II-01, 3-[4-(5-Phenyl-1,3-oxazol-2-yl)thiophen-2-yl]-4-(propan-2-yl)-4H-1,2,4-triazole] | 50 to 500 nM
C[C@H](CO)n1cnnc1-c1cccc(-c2ncc(-c3cccc(N4CCN(C)CC4)c3)o2)n1 [Compound I-116] | ≤ 50 nM
C[C@H](CO)n1cnnc1-c1cccc(-c2ncc(-c3c(F)cc(F)cc3F)o2)n1 [Compound I-053] | ≤ 50 nM
CSc1cccc(-c2cnc(-c3cccc(-c4nncn4C(C)C)n3)o2)c1 [Compound I-068] | ≤ 50 nM
CC(C)n1cnnc1-c1cccc(-c2ncc(-c3ccc(C(N)=O)cc3)o2)n1 [Compound I-095] | 50 to 500 nM
C[C@H](CO)n1cnnc1-c1cccc(-c2ncc(-c3ccc(S(N)(=O)=O)cc3)o2)n1 [Compound I-100] | ≤ 50 nM
CC(C)n1cnnc1-c1cccc(-c2ncc(-c3ccccc3C(F)(F)F)o2)n1 [Compound I-085] | 50 to 500 nM
CC(C)n1cnnc1-c1cccc(-c2ncc(-c3cccc(C(N)=O)c3)o2)n1 [Compound I-009, 3-(2-[6-[4-(Propan-2-yl)-4H-1,2,4-triazol-3-yl]pyridin-2-yl]-1,3-oxazol-5-yl)benzamide] | 50 to 500 nM
Cc1ccc(-c2cnc(-c3cccc(-c4nncn4C(C)C)n3)o2)c(C)c1 [Compound I-031] | ≤ 50 nM
Cc1ccc(-c2cnc(-c3cccc(-c4nncn4[C@H](C)CO)n3)o2)c(C)c1 [Compound I-032] | ≤ 50 nM
C[C@H](CO)n1cnnc1-c1cccc(-c2ncc(-c3cccc(O)c3)o2)n1 [Compound I-074] | ≤ 50 nM
CC(C)n1cnnc1-c1cccc(-c2ncc(-c3ccc4c(c3)OCCO4)o2)n1 [Compound I-102] | ≤ 50 nM
CC(C)n1cnnc1-c1cccc(-c2ncc(-c3cccc(OC(F)F)c3)o2)n1 [Compound I-083] | 50 to 500 nM
CC(C)n1cnnc1-c1cccc(-c2ncc(-c3cccc(OC(F)(F)F)c3)o2)n1 [Compound I-082] | 50 to 500 nM
C[C@H](CO)n1cnnc1-c1cccc(-c2ncc(-c3ccccc3)o2)n1 [Compound I-018] | ≤ 50 nM
CSc1ccc(-c2cnc(-c3cccc(-c4nncn4C(C)C)n3)o2)cc1 [Compound I-067] | ≤ 50 nM
